Data published in ChEMBL document CHEMBL3885861, “Open TG-GATES”.

Species: Rattus norvegicus
Assay: Open TG-GATES - Regimen: Daily Repeat
Type: toxicity, organism-based, Sprague-Dawley
Set-up: regimen Daily Repeat, gender Male, age 6 weeks
Conditions: in vivo, po, 75 mg/kg, route gavage, dose level Low; for APTT / Bas / Eos / Fbg / Hb / Ht / Lym / MCH / MCHC / MCV / Mono / Neu / PT / Plat / RBC / Ret / WBC: tissue Blood; for KIDNEY_L / KIDNEY_R / KIDNEY_TOTAL: tissue Kidney; for LIVER: tissue Liver; for A/G / ALP / ALT / AST / BUN / CRE / Ca / Cl / DBIL / GLC / IP / K / LDH / Na / PL / RALB / TBIL / TC / TG / TP / gamma-GTP: tissue Plasma

Question: What does the source list for `CN(C/C=C/C#CC(C)(C)C)Cc1cccc2ccccc12` [TERBINAFINE]?
Answer: TERMINAL_BW (72 h, time 3 day): 243.4 g; APTT (72 h, time 3 day): 18.6 s; Bas (72 h, time 3 day): 0.8%; Eos (72 h, time 3 day): 0.8%; Fbg (72 h, time 3 day): 233.4 mg/dL; Hb (72 h, time 3 day): 13.4 g/dL; Ht (72 h, time 3 day): 39.5%; Lym (72 h, time 3 day): 80.4%; MCH (72 h, time 3 day): 21.7 pg; MCHC (72 h, time 3 day): 33.7%; MCV (72 h, time 3 day): 64.3 fL; Mono (72 h, time 3 day): 2.8%; Neu (72 h, time 3 day): 15.4%; PT (72 h, time 3 day): 11.5 s; Plat (72 h, time 3 day): 121.6 x10_4/uL; RBC (72 h, time 3 day): 615.4 x10_4/ul; Ret (72 h, time 3 day): 6.2%; WBC (72 h, time 3 day): 111.7 x10_2/uL; KIDNEY_L (72 h, time 3 day): 1.1 g; KIDNEY_R (72 h, time 3 day): 1.1 g; KIDNEY_TOTAL (72 h, time 3 day): 2.1 g; LIVER (72 h, time 3 day): 12.1 g; A/G (72 h, time 3 day): 1.7; ALP (72 h, time 3 day): 854 IU/L; ALT (72 h, time 3 day): 35.2 IU/L; AST (72 h, time 3 day): 67.2 IU/L; BUN (72 h, time 3 day): 14.2 mg/dL; CRE (72 h, time 3 day): 0.4 mg/dL; Ca (72 h, time 3 day): 10.8 mg/dL; Cl (72 h, time 3 day): 103.6 meq/L; DBIL (72 h, time 3 day): 0.1 mg/dL; GLC (72 h, time 3 day): 190.8 mg/dL; IP (72 h, time 3 day): 7.3 mg/dL; K (72 h, time 3 day): 4.2 meq/L; LDH (72 h, time 3 day): 214.6 IU/L; Na (72 h, time 3 day): 141.2 meq/L; PL (72 h, time 3 day): 156 mg/dL; RALB (72 h, time 3 day): 3.6 g/dL; TBIL (72 h, time 3 day): 0.2 mg/dL; TC (72 h, time 3 day): 80.6 mg/dL; TG (72 h, time 3 day): 113.4 mg/dL; TP (72 h, time 3 day): 5.7 g/dL; gamma-GTP (72 h, time 3 day): 2 IU/L; TERMINAL_BW ([…], time 7 day): 274.5 g; TERMINAL_BW ([…], time 14 day): 333.7 g; TERMINAL_BW ([…], time 28 day): 399 g; APTT ([…], time 7 day): 19.2 s; Bas ([…], time 7 day): 1%; Eos ([…], time 7 day): 0.6%; Fbg ([…], time 7 day): 226 mg/dL; Hb ([…], time 7 day): 13.9 g/dL; Ht ([…], time 7 day): 40.6%; Lym ([…], time 7 day): 83%; MCH ([…], time 7 day): 21.7 pg; MCHC ([…], time 7 day): 34.3%; MCV ([…], time 7 day): 63.5 fL; Mono ([…], time 7 day): 2.4%; Neu ([…], time 7 day): 13.2%; PT ([…], time 7 day): 11.9 s; Plat ([…], time 7 day): 130.9 x10_4/uL; RBC ([…], time 7 day): 640.8 x10_4/ul; Ret ([…], time 7 day): 5.2%; WBC ([…], time 7 day): 112.5 x10_2/uL; APTT ([…], time 14 day): 20.1 s; Bas ([…], time 14 day): 1%; Eos ([…], time 14 day): 1%; Fbg ([…], time 14 day): 219.4 mg/dL; Hb ([…], time 14 day): 14.6 g/dL; Ht ([…], time 14 day): 42.7%; Lym ([…], time 14 day): 79.8%; MCH ([…], time 14 day): 20.6 pg; MCHC ([…], time 14 day): 34%; MCV ([…], time 14 day): 60.4 fL; Mono ([…], time 14 day): 2.6%; Neu ([…], time 14 day): 15.4%; PT ([…], time 14 day): 11.3 s; Plat ([…], time 14 day): 129 x10_4/uL; RBC ([…], time 14 day): 707.4 x10_4/ul; Ret ([…], time 14 day): 4%; WBC ([…], time 14 day): 118.9 x10_2/uL; APTT ([…], time 28 day): 21.8 s; Bas ([…], time 28 day): 0.8%; Eos ([…], time 28 day): 1%; Fbg ([…], time 28 day): 210.8 mg/dL; Hb ([…], time 28 day): 15 g/dL; Ht ([…], time 28 day): 42.9%; Lym ([…], time 28 day): 80.6%; MCH ([…], time 28 day): 19.7 pg; MCHC ([…], time 28 day): 34.8%; MCV ([…], time 28 day): 56.7 fL; Mono ([…], time 28 day): 2.2%; Neu ([…], time 28 day): 15%; PT ([…], time 28 day): 12.2 s; Plat ([…], time 28 day): 114.8 x10_4/uL; RBC ([…], time 28 day): 758.2 x10_4/ul; Ret ([…], time 28 day): 2.7%; WBC ([…], time 28 day): 135.9 x10_2/uL; KIDNEY_L ([…], time 7 day): 1.2 g; KIDNEY_R ([…], time 7 day): 1.2 g; KIDNEY_TOTAL ([…], time 7 day): 2.4 g; KIDNEY_L ([…], time 14 day): 1.3 g; KIDNEY_R ([…], time 14 day): 1.3 g; KIDNEY_TOTAL ([…], time 14 day): 2.5 g; KIDNEY_L ([…], time 28 day): 1.5 g; KIDNEY_R ([…], time 28 day): 1.6 g; KIDNEY_TOTAL ([…], time 28 day): 3.1 g; LIVER ([…], time 7 day): 13.1 g; LIVER ([…], time 14 day): 15.1 g; LIVER ([…], time 28 day): 17.5 g; A/G ([…], time 7 day): 1.6; ALP ([…], time 7 day): 944.6 IU/L; ALT ([…], time 7 day): 36.6 IU/L; AST ([…], time 7 day): 72.8 IU/L; BUN ([…], time 7 day): 16.2 mg/dL; CRE ([…], time 7 day): 0.4 mg/dL; Ca ([…], time 7 day): 10.6 mg/dL; Cl ([…], time 7 day): 103.8 meq/L; DBIL ([…], time 7 day): 0.1 mg/dL; GLC ([…], time 7 day): 188.2 mg/dL; IP ([…], time 7 day): 7.1 mg/dL; K ([…], time 7 day): 4.4 meq/L; LDH ([…], time 7 day): 217.6 IU/L; Na ([…], time 7 day): 142 meq/L; PL ([…], time 7 day): 152.8 mg/dL; RALB ([…], time 7 day): 3.6 g/dL; TBIL ([…], time 7 day): 0.2 mg/dL; TC ([…], time 7 day): 76.2 mg/dL; TG ([…], time 7 day): 112.8 mg/dL; TP ([…], time 7 day): 5.8 g/dL; gamma-GTP ([…], time 7 day): 1 IU/L; A/G ([…], time 14 day): 1.5; ALP ([…], time 14 day): 875.8 IU/L; ALT ([…], time 14 day): 36.8 IU/L; AST ([…], time 14 day): 71.4 IU/L; BUN ([…], time 14 day): 17.6 mg/dL; CRE ([…], time 14 day): 0.4 mg/dL; Ca ([…], time 14 day): 10.8 mg/dL; Cl ([…], time 14 day): 103.8 meq/L; DBIL ([…], time 14 day): 0.1 mg/dL; GLC ([…], time 14 day): 206.6 mg/dL; IP ([…], time 14 day): 7.2 mg/dL; K ([…], time 14 day): 3.8 meq/L; LDH ([…], time 14 day): 168.2 IU/L; Na ([…], time 14 day): 142.4 meq/L; PL ([…], time 14 day): 140.4 mg/dL; RALB ([…], time 14 day): 3.5 g/dL; TBIL ([…], time 14 day): 0.2 mg/dL; TC ([…], time 14 day): 65.4 mg/dL; TG ([…], time 14 day): 123 mg/dL; TP ([…], time 14 day): 5.9 g/dL; gamma-GTP ([…], time 14 day): 0.8 IU/L; A/G ([…], time 28 day): 1.3; ALP ([…], time 28 day): 602 IU/L; ALT ([…], time 28 day): 41.4 IU/L; AST ([…], time 28 day): 76.2 IU/L; BUN ([…], time 28 day): 17.2 mg/dL; CRE ([…], time 28 day): 0.5 mg/dL; Ca ([…], time 28 day): 10.3 mg/dL; Cl ([…], time 28 day): 104.4 meq/L; DBIL ([…], time 28 day): 0.086 mg/dL; GLC ([…], time 28 day): 223.4 mg/dL; IP ([…], time 28 day): 7.2 mg/dL; K ([…], time 28 day): 4.1 meq/L; LDH ([…], time 28 day): 230.6 IU/L; Na ([…], time 28 day): 141 meq/L; PL ([…], time 28 day): 127.2 mg/dL; RALB ([…], time 28 day): 3.4 g/dL; TBIL ([…], time 28 day): 0.2 mg/dL; TC ([…], time 28 day): 64.8 mg/dL; TG ([…], time 28 day): 87.4 mg/dL; TP ([…], time 28 day): 6.1 g/dL; gamma-GTP ([…], time 28 day): 1.2 IU/L
